One series deals with T1, NaDC3 (SLC13A3) (Homo sapiens, UniProt Q8WWT9).
T1 construct: host or cells: HEK-293, transient (Fugene HD)
T1 sequence (Q8WWT9 1-602): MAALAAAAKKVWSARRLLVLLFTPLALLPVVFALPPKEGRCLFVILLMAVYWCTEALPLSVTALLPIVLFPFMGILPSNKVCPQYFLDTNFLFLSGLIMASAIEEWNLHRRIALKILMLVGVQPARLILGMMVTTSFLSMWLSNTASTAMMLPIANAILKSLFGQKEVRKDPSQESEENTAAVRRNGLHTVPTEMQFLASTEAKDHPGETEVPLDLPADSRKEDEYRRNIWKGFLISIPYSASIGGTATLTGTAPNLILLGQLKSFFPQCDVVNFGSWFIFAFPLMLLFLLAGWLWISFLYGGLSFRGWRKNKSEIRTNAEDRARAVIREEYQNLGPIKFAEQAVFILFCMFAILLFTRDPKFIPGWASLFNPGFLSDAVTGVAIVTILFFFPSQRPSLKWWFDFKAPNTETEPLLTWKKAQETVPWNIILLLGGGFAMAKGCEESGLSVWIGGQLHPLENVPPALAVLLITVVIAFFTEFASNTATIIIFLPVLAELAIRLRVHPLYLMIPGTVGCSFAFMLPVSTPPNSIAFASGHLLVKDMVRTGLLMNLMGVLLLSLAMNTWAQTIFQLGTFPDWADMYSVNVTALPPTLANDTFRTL
The series can be described thus: Inhibition of citrate or succinate uptake in HEKNaDC3 cells. The format is cell-based. The source says: Protocols to generate the stable cell line overexpressing NaCT or cell transfection with SLC13A2 or SLC13A3 can be found in the supporting information. HEK-293 cells stably transfected with the human sodium Citrate transporter SLC13A5 or transiently transfected with the human SLC13A2 or SLC13A3 transporter were removed from the flasks with dissociation buffer and re-suspended in an equal volume of growth media (DMEM, High Glucose supplemented with 10% heat inactivated fetal bovine serum and 500 μg/ml Geneticin). For the transient transfections, Geneticin was eliminated from the media. Cell suspensions were centrifuged at 1,000 rpm for approximately 5 minutes. Resulting cell pellets were re-suspended in growth media and placed in a 37 °C water bath for approximately 10 minutes prior to a final spin at 1,000 rpm. Following this spin the resulting cell pellets were re-suspended in assay buffer, 142 mM NaCl (or 142 mM choline chloride), 5 mM KCl, 1.2 mM MgSO4, 1.5 mM CaCl, 5 mM glucose and 25 mM HEPES pH 7.4. Cell suspensions were counted and the concentration adjusted as needed with assay buffer to 2e[6] viable cells /mL. 20 μL of cell suspension were added to 384-well cyotstar-T plates followed by the addition of 5 μL of 10× concentration of compound. Cells and compound were incubated at 37 °C for approximately 30 minutes prior to the addition of 25 μL of 300 μM citric acid (16 μM radiolabeled [^14C]-citric acid and 284 μM cold citric acid) to make a 150 μM final concentration of citric acid or 21 μM [^14C]-succinic acid. After substrate addition, the uptake of radioactivity was monitored on Perkin Elmer Microbeta plate reader. Data from reads between 45–90 minutes was used to assess the ability of test compounds to inhibit the uptake of citric or succinic acid. […]
were plated, and incubated for 48 hours. Following the incubation, NaDC1 and NaDC3 assays were executed identical to the procedure for NaCT. […]
The solution was heated to reflux until the total volume was reduced to ~25 mL. […]

The target of series [1] is Acetylcholinesterase (ACHE) (Homo sapiens, UniProt P22303). The series can be described thus: Selectivity data (Table S1). The class given is biochemical.
Series [2] has as its target Cyclooxygenase 2 (prostaglandin endoperoxide synthase 2) (Homo sapiens, UniProt P35354). As to the kind of experiment: Selectivity data (Table S1). The format is biochemical.
In the next series the target is CYP2C9 (Homo sapiens, UniProt P11712). The series can be described thus: Selectivity data (Table S1). The class given is in vitro ADME. As to conditions: 3 µM.
For series [3], the target named is Cytochrome P450 2C9 (CYP2C9) (Homo sapiens, UniProt P11712). As to the kind of experiment: Selectivity data (Table S1). The format is in vitro ADME.
The target of series [4] is Mitogen-activated protein kinase 14 (MAPK14 / P38-alpha) (Homo sapiens, UniProt Q16539). As to the kind of experiment: Selectivity data (Table S1). The format is biochemical.
Series [5] addresses Phosphodiesterase 5A1 (PDE5A1) (Homo sapiens, UniProt O76074). As to the kind of experiment: Selectivity data (Table S1). The class given is biochemical.
For series [6], the target named is Sodium channel, neuronal alpha-subunit (NaV1.1) (Homo sapiens, UniProt P35498). As to the kind of experiment: Selectivity data (Table S1).
Series [7] deals with Adrenergic receptor, alpha-2A (ADRA2A) (Homo sapiens, UniProt P08913). The series can be described thus: Selectivity data (Table S1). The format is binding.
The target of the next series is Dopamine receptor 2 (D2) (Homo sapiens, UniProt P14416). As to the kind of experiment: Selectivity data (Table S1). The format is binding.
Series [8] concerns the target Epidermal growth factor receptor (EGFR) (Homo sapiens, UniProt P00533). The series can be described thus: Selectivity data (Table S1). The class given is binding.
For series [9], the target named is Histamine receptor 1 (H1) (Homo sapiens, UniProt P35367). The series can be described thus: Selectivity data (Table S1). The class given is binding.
The target in series [10] is Muscarinic acetylcholine receptor 2 (M2) (Homo sapiens, UniProt P08172). As to the kind of experiment: Selectivity data (Table S1). The format is binding.
Series [11] deals with Muscarinic acetylcholine receptor 3 (M3) (Homo sapiens, UniProt P20309). The series can be described thus: Selectivity data (Table S1). The class given is binding.
Series [12] has as its target Opioid receptor, mu (MOP) (Homo sapiens, UniProt P35372). The series can be described thus: Selectivity data (Table S1). The format is binding.
A short description of series [13]: Steady state intravenous infusion in rat, tissue distribution.
A further series relates to DIO mice. As to the kind of experiment: Plasma glucose concentrations in DIO mice, acute or sub-chronic dosing. Conditions: single 250 mg/kg dose or 3 days 250 mg/kg BID.

Each structure is given as a SMILES string. “Also recorded” adds a separate entry of the source. Some results are limits rather than exact numbers.

Opioid receptor, mu (MOP), sequence (P35372 whole entry, the tested form may be a part): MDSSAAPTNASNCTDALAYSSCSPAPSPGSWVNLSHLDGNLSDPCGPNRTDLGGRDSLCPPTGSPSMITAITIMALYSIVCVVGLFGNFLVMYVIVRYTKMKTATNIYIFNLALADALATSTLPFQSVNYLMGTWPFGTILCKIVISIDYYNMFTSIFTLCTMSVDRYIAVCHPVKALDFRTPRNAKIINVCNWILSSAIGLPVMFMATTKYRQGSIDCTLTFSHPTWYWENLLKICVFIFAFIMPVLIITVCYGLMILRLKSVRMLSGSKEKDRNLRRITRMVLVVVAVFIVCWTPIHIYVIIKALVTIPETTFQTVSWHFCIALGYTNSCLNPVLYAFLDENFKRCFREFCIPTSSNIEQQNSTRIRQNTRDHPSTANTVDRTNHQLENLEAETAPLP
Acetylcholinesterase (ACHE), sequence (P22303 32-614): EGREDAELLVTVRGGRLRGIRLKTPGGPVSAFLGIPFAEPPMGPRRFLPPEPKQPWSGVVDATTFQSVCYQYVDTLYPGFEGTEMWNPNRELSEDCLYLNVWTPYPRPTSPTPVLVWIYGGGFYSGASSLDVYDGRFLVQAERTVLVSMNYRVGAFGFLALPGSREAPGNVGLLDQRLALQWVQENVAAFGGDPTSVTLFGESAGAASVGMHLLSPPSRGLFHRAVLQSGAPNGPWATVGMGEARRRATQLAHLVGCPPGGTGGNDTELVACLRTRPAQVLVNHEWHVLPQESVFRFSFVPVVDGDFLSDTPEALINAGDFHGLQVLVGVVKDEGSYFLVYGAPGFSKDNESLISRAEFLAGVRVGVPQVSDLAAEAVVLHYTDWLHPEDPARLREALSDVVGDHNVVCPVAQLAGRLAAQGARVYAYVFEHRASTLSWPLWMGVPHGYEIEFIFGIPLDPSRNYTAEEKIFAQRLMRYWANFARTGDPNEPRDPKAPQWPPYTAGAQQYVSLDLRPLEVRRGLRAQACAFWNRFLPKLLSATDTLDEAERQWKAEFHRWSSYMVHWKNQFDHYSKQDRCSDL
Histamine receptor 1 (H1), sequence (P35367 whole entry): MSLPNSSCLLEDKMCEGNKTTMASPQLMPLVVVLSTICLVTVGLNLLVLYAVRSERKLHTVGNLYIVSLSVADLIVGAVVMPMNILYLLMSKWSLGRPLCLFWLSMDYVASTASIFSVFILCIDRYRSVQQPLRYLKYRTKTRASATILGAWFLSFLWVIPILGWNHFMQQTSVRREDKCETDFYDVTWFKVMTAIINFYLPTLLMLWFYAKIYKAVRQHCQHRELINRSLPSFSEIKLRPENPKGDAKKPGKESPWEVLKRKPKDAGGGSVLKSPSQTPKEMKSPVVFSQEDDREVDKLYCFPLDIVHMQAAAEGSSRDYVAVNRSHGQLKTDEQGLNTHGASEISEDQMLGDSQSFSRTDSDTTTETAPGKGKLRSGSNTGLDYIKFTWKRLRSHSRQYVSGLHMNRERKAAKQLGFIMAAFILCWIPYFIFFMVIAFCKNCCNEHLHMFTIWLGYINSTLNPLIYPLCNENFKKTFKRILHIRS
Muscarinic acetylcholine receptor 2 (M2), sequence (P08172 whole entry): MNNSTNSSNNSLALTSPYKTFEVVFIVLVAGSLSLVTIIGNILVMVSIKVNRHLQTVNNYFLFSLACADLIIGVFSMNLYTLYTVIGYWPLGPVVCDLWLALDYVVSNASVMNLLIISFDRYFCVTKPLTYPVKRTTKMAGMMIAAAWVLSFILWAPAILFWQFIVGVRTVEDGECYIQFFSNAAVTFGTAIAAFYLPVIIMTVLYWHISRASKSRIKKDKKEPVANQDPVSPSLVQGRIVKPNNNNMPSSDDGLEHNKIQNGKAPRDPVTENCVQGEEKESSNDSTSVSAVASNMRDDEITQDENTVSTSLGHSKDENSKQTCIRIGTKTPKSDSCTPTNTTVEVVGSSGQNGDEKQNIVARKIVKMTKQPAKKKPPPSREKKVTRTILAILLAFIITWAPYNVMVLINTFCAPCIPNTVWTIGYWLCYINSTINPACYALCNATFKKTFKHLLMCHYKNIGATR
Epidermal growth factor receptor (EGFR), sequence (P00533 25-1210): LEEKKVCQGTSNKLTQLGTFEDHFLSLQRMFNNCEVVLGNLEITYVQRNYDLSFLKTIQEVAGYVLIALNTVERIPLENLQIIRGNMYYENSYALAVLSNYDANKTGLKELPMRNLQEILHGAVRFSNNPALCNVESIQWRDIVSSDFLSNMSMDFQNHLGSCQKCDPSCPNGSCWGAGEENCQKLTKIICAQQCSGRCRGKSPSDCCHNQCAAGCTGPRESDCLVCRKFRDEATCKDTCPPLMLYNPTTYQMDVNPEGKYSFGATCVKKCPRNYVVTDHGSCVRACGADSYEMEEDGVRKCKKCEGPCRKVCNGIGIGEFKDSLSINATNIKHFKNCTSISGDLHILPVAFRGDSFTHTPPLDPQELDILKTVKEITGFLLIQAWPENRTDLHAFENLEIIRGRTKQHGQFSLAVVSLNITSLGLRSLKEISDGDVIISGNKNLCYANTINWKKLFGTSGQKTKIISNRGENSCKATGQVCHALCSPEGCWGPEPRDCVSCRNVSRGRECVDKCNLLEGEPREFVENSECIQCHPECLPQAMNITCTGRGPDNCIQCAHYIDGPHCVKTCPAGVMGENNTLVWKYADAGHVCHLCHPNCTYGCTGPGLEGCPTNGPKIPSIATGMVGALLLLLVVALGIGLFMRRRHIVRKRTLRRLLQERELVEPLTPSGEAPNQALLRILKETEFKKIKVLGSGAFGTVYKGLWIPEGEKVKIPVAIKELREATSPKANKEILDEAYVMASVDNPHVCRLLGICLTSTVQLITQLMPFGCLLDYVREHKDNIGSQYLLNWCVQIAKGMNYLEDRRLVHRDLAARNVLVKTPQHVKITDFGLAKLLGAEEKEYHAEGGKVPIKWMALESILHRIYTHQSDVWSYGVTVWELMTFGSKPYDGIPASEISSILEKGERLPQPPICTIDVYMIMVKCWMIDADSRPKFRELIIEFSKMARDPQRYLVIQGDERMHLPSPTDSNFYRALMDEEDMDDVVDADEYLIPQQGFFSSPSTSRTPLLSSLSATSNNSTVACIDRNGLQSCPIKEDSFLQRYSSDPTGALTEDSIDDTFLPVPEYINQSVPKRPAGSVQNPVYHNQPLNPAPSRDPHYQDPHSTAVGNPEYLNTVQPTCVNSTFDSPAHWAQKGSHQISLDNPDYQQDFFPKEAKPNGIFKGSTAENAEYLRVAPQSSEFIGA
Mitogen-activated protein kinase 14 (MAPK14 / P38-alpha), sequence (Q16539 whole entry): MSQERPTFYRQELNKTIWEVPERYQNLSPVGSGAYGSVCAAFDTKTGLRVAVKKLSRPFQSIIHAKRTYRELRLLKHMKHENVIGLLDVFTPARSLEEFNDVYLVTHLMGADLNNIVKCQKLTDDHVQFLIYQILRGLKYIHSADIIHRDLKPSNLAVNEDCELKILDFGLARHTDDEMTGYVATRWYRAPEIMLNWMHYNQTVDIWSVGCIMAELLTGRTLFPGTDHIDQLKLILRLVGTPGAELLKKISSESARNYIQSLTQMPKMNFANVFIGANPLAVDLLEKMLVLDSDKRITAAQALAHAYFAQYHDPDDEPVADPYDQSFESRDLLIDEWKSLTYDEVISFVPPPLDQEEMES
Adrenergic receptor, alpha-2A (ADRA2A), sequence (P08913 whole entry): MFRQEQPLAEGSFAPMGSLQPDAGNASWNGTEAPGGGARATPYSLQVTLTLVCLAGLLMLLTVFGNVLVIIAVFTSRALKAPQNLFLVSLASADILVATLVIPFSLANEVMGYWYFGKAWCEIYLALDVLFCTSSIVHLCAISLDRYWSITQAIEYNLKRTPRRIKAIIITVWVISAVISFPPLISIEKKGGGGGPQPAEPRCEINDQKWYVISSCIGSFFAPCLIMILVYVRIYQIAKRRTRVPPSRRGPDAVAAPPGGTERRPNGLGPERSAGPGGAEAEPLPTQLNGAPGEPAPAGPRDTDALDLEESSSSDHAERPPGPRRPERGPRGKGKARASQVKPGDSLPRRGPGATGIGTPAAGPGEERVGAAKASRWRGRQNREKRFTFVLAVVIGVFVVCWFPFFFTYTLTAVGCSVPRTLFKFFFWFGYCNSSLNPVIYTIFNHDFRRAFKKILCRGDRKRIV
Dopamine receptor 2 (D2), sequence (P14416 whole entry): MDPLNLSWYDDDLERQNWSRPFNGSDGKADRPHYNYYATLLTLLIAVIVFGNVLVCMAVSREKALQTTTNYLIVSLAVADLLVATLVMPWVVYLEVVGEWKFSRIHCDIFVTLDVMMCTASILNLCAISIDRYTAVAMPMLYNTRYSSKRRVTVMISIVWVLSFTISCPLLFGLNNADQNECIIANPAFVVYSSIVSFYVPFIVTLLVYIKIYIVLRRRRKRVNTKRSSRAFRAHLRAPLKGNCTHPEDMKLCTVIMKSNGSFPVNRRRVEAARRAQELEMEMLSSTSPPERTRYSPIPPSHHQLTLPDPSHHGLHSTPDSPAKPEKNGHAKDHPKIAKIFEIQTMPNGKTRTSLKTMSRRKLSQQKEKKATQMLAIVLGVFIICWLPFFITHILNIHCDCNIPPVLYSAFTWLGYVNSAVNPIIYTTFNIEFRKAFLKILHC
CYP2C9, sequence (P11712 whole entry): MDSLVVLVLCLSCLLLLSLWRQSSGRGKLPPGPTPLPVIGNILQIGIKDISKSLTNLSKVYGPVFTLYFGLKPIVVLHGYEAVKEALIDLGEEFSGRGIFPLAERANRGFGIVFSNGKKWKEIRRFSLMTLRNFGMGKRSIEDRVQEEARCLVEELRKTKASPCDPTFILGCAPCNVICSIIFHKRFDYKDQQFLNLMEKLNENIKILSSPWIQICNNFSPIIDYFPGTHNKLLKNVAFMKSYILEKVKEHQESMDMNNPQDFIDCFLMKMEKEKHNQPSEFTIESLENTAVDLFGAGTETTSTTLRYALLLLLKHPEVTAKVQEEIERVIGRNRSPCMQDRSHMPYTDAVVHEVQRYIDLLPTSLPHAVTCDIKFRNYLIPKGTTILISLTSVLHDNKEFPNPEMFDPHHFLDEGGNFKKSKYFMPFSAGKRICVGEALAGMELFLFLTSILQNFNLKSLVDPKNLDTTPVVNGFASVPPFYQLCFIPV

The term IC50 denotes the point on the concentration scale where inhibition reaches its midpoint. What is called inhibition is how much of the control response was suppressed. Higher therefore signals strong suppression. With `CC(C)(C)c1ccc(CC[C@@](O)(CC(=O)O)C(=O)O)cc1` [Compound 2], the “inhibition of citrate or succinate uptake, NaDC3” value against NaDC3 (SLC13A3) (HEK-293-derived system overexpressing NaDC3) was “No measurable inhibition”. In addition, the results for the IC50 (against NaDC3 (SLC13A3) (compound 4: mean of 2 replicates); in series [5]) were over 100 µM and over 30 µM, respectively. In addition, the genetic toxicity result in the series “Genetic toxicity assays” is reported as “negative”. For the same compound, the inhibition at 100 µM is under 10% in series [1]; 22% in series [2]; under 10% in series [4]; under 10% in [7]; under 10% against Dopamine receptor 2 (D2); under 10% in [8]. Besides, the inhibition at 100 µM in series [9], in series [10], in series [11] and in [12] was under 10% in each case. Further, the inhibition at 3 µM against CYP2C9 was under 10%. Also, the “interaction/inhibition of CYP2C9” value in [3] is given as “no significant interaction/inhibition”. For the same compound, the inhibition at 10 µM in series [6] was under 10%. Moreover, the brain penetration entry in [13] (steady state intravenous infusion) was “minimal brain penetration; also recorded: restricted in the brain”. The “uptake in liver and kidney compared to plasma” value in series [13] (steady state intravenous infusion 0.27mg/kg/hour) is “significant uptake of the compound in the liver and kidney”. In addition, the plasma glucose concentrations result in the series with DIO mice is “modest but significant reductions”.

For the origin of these results see paper PMC4664966, “Discovery and characterization of novel inhibitors of the sodium-coupled citrate transporter (NaCT or SLC13A5)” (Scientific Reports, 2015).
